# Values joined by “and” are separate entries in the source; they are usually repeats but may differ in a detail not shown here. Equal values may be shown once. Where a name gives a salt, the structure may show the parent alone. Read-outs that look alike come from different tables or passages of the source.
# Tests used:
# SARS-CoV-2 [1] = settings: cited from earlier work
# Vero-E6 cells = assay: cells; format: cell-based
# A549-ACE2 cells = assay: cells; format: cell-based; settings: A549-ACE2, 24 h, read-out: PLD_Effect(%) A549-ACE2
# [2] = cited from earlier work; for Ki: read-out: Ki (value)
# SARS-CoV-2 [3] = settings: 10 µM; cited from earlier work
# [4] = Chlorocebus sabaeus, Vero C1008, read-out: PLD EC50 µM
# [5] = value is the negative log10 of mol/L
# [6] = Chlorocebus sabaeus, Vero C1008, 24 h, read-out: PLD_Effect(%) VERO-E6
# [7] = Chlorocebus sabaeus, Vero C1008, 24 h; read-out: PLD Effect in % 5 µM
# [8] = Chlorocebus sabaeus, Vero C1008, 24 h; read-out: PLD Effect in % 10 µM
# [9] = Chlorocebus sabaeus, Vero C1008, 24 h; read-out: PLD Effect in % 20 µM
Structure (SMILES),activation at 10 µM (A549-ACE2 cells) [%],"pchembl_value (IC50) [2, 5]",activation at 10 µM (Vero-E6 cells; [6]) [%],pchembl_value (AC50) [2],further results
"O=C(CCCN1CCC2(CC1)C(=O)N(Cc1cccc(F)c1)CN2c1ccccc1)c1ccc(F)cc1 [3'-fluorobenzylspiperone, reference compound]",,,,,"CaCo2 CPE inhibition % (SARS-CoV-2 [1]; Caco-2, 20 µM): 102.38; CaCo2 CPE assay (active) (SARS-CoV-2 [1]; Caco-2): active; PLD induction assay (active) (Vero-E6 cells): active; activation at 5 µM (Vero-E6 cells; Chlorocebus sabaeus, Vero C1008, 24 h, read-out: PLD Effect in % 5 µM): 61.8%; activation at 10 µM (Vero-E6 cells; Chlorocebus sabaeus, Vero C1008, 24 h, read-out: PLD Effect in % 10 µM): 41.3%; activation at 20 µM (Vero-E6 cells; Chlorocebus sabaeus, Vero C1008, 24 h, read-out: PLD Effect in % 20 µM): 8.92%; EC50 (Vero-E6 cells; [4]): 10.3 µM"
C[C@H](Oc1cc(-c2cnn(C3CCNCC3)c2)cnc1N)c1c(Cl)ccc(F)c1Cl [(S)-crizotinib],102,6.86 and 6.17,70.2,,"IC50 ([2]; read-out: IC50 (value)): 680 nM; Ki [2]: 161 nM; pchembl_value (Kd) [2, 5]: 7.43 and 6.28 and 7.41; pchembl_value (Ki) [2, 5]: 6.79"
Nc1nc2c(c(N3CCNCC3)n1)CCC1=C2[C@@H]2CCCC[C@@H]2O1 [A-987306],52.2,8.41 and 10.06 and 8.24,70.7,,pKi (value) [2]: 7.1; pchembl_value (pKi) [2]: 7.10
C[C@@H]1CCCN1CCc1cc2cc(-c3ccc(C#N)cc3)ccc2o1 [ABT 239 tartrate],67.4,,66.8,,Ki [2]: 0.45 nM
CCN(CCCc1ccccc1)CCCc1ccccc1 [ALVERINE CITRATE],63.7,,58.9,,AC50 [2]: 29 nM
"C[C@@H](NCCCc1cccc(C(F)(F)F)c1)c1cccc2ccccc12 [AMG-073 HCl, cinacalcet hydrochloride, reference compound]",104,,61.8,6.14,"Vero-E6 CPE inhibition % (SARS-CoV-2 [3]): -0.15; AC50 ([2]; read-out: AC50 (value)): 730 nM; activation at 5 µM (Vero-E6 cells; [7]): 70.8%; activation at 10 µM (Vero-E6 cells; [8]): 79.5%; activation at 20 µM (Vero-E6 cells; [9]): 253%; EC50 (Vero-E6 cells; Chlorocebus sabaeus, Vero C1008; read-out: PLD EC50): 18.6 µM"
CN1CCCC(n2nc(Cc3ccc(Cl)cc3)c3ccccc3c2=O)CC1 (stereo not shown) [AZELASTINE HYDROCHLORIDE],57.3,6.00,57.2,7.62,pIC50 (value) [2]: 7.0; pchembl_value (pIC50) [2]: 7.00; AC50 ([2]; read-out: AC50 (value)): 24 nM; IC50 ([2]; read-out: IC50 (value)): 1000 nM
Cn1ncc(Cl)c1-c1cc(C(=O)N[C@H](CN)Cc2cccc(F)c2)sc1Cl [Afuresertib],77.1,10.10 and 8.70 and 8.59,69.5,,"Ki [2]: 0.08 nM; pchembl_value (Ki) [2, 5]: 10.10"
CC(C)c1cnn2c(NCc3ccccc3)cc(NCCCCCCN)nc12 [BS-181],63.8,,53.6,,IC50 ([2]; read-out: IC50 (value)): 21 nM
"CN1CCC(Nc2ncc3ncnc(Nc4ccc(F)c(Cl)c4)c3n2)CC1 [BiBX-1382, reference compound]",,,,,Vero-E6 CPE inhibition % (SARS-CoV-2 [3]): 0.28%; activation at 5 µM (Vero-E6 cells; [7]): 85.8%; activation at 10 µM (Vero-E6 cells; [8]): 75.5%; activation at 20 µM (Vero-E6 cells; [9]): -0.64%; EC50 (Vero-E6 cells; [4]): 0.61 µM
Clc1ccc(C(OCCN2CCCCC2)c2ccccc2)cc1 (stereo not shown) [CLOPERASTINE HYDROCHLORIDE],72.5,,63.9,6.48,AC50 ([2]; read-out: AC50 (value)): 331 nM
CCN(CC)CCOC(=O)C(c1ccccc1)C1CCCCC1 (stereo not shown) [DROFENINE HYDROCHLORIDE],53.9,,52,6.66 and 7.47,
CNCC[C@H](Oc1cccc2ccccc12)c1cccs1 [DULOXETINE HYDROCHLORIDE],91.5,,92.6,,IC50 [2]: 440 nM
CNCCC(Oc1ccc(C(F)(F)F)cc1)c1ccccc1 (stereo not shown) [FLUOXETINE HYDROCHLORIDE],109,,54.3,7.03 and 7.53,
OCCN1CCN(CC/C=C2/c3ccccc3Sc3ccc(C(F)(F)F)cc32)CC1 [Flupentixol],81.9,,83.6,,Log IC50 (value) [2]: -8.65; pchembl_value (Log IC50) [2]: 8.65
CCCCCCCCC(=O)N[C@H](CN1CCCC1)[C@H](O)c1ccc2c(c1)OCCO2 [Genz-123346 (free base)],81.6,8.05,63.4,,IC50 ([2]; read-out: IC50 (value)): 9 nM
